Results as given in patent US8497123B2, “Sterol glucoside toxins” (priority 2000, dated 2013).
“Also recorded” adds a separate entry of the source. Read-outs that look alike come from different tables or passages of the source.

Key:
[1] = tested on: human cortical astrocytes; type: cell-based; conditions: for apoptotic cell loss (cell density, caspase-3): cortical astrocytes on coverslips
Protocol: FIG. 5: Caspase-3 labeling of human cortical astrocytes in tissue culture. Fetal human telencephalic astrocytes were grown to confluency and then exposed to NMDA, BSSG, cholesterol glucoside (CG), or hydrogen peroxide (H2O2) for various periods. […] At longer time points, the overall numbers of cells in these conditions declined.
We have raised cortical astrocytes on coverslips in culture, exposing them to […], or cholesterol glucoside. Cell loss was measured directly by cell density measurements; apoptosis was measured by staining cells for caspase-3 labeling.

[2] = tested on: adult rat neocortex cortical wedges; type: cell-based; conditions: for field potential response with NMDA receptor antagonists (AP5, kynurenate, MK801): co-application of NMDA antagonist; for field potential response: cortical wedge, Mg2+-free buffer; for field potential response with AMPA antagonist NBQX: co-application of NBQX or other AMPA antagonists
Protocol: Cortical ‘wedges’ were prepared as described previously (Shaw et al., 1996). In brief, animals were anesthetized with CO2, decapitated, and a cortical block rapidly removed and placed in cold Krebs-Henseleit buffer containing (in mM): NaCl 124, KCl 3.3, NaHCO3 25, glucose 10, KH2PO4 1.2, CaCl2 2.4, and MgSO4 1.2, bubbled with 5% CO2/95% O2, pH 7.4. The cortical block was sectioned into […] thick coronal slices using a Vibratome (Campden Instruments) and the slices cut into pie shaped wedges in which the white matter formed the narrow edge of the wedge. Each wedge was placed on a net across a grease gap between two fluid filled chambers. The cortical side of the wedge was bathed (at room temperature, approx. 25° C.) in buffer lacking Mg^2+; the callosal portion was bathed in buffer containing Mg^2+ to minimize neural activity. Field potentials were differentially recorded between the two chambers using two Ag/AgCl electrodes. Recordings from up to 6 wedges, each in individual chambers, could be made simultaneously for each experiment. The wedges were continuously perfused on the cortical side with oxygenated, Mg^2+-free buffer using a gravity feed system. Using this system, drugs could be rapidly substituted for control media to examine response characteristics. Wedges typically survived for up to 8 hrs. Responses were recorded on LabView™ after amplification and A/D conversion and the traces were charted in Excel™ for Windows™. Statistical analysis of peak response amplitude was performed by one-way ANOVA using Bonferroni's post test with GraphPad Prism™.

[3] = tested on: rat cortical slices; conditions: for LDH release (cell death) / LDH release in presence of AP5 / NMDA antagonists: rat cortical slices; for LDH release (cell death): 1 hr at 37° C.; for LDH release in presence of AP5 / NMDA antagonists: plus AP5
Protocol: Cortical slices were prepared as described above in the glutamate release experiments and placed in tissue culture wells containing Krebs-Heinsleight buffer supplemented with 0.0004% H2O2 and 1 mg/mL glucose. […] For additional comparison and to establish the limits of the method, some slices were freeze-thawed to kill all the cells. Alternatively, some slices were incubated in buffer containing 1.2 mM Mg^2+ in order to diminish spontaneous neural activity. At the end of the 1 hr incubation period, 3 samples (100 μl of buffer, each sample) were taken from each well. LDH assays were performed on these samples using a LDH diagnostic kit (Sigma) following the manufacturer's protocol with some modifications. In brief, 0.5 ml of pyruvate solution was mixed with 0.5 mg pre-weighed NADH. 100 μl of slice medium (free of slices) was added to the mixture and incubated for 30 min at 37° C. 0.5 ml of Sigma coloring reagent (2, 4-dinitrophenylhydrazine in HCl, 2 mg/ml) was added to develop the color and the mixture was incubated for 20 min at room temperature. 5 ml of 0.4 N NaOH were added to each tube. After 5 min, optical density was read at 440 nm. Standard curves were prepared for each assay using different concentrations of pyruvate solution (0-960 units). LDH activity (in International Units) was calculated from the standard curve and normalized by total protein content of each slice as determined by the Lowry protein assay (Peterson, 1979). One International Unit represents the amount of enzyme required to convert 1 μmol of substrate/minute at room temperature.
(§1) Data for LDH and glutamate release experiments were analyzed for significance by one way ANOVA using Dunnett's and Bonferroni's post tests with GraphPad Prism™.

[4] = tested on: Rats; conditions: rats fed MSO
Protocol: Terminal deoxynucleotidyl transferase (TdT) mediated dUTP-digoxigenin (DIG) nickend labeling (TUNEL) was carried out using an Intergen ApopTag Plus peroxidase kit using the manufacturer's protocol adapted from Gavrieli et al. (1992) with some modifications. […] Briefly, 20 μM thick coronal sections were cut on a cryostat then fixed in 1% paraformaldehyde at room temperature for 2 days. […] After rinsing with PBS, the sections were then exposed to 11 μL/cm^2 working strength of TdT enzyme for 1 hr at 37° C. After washing in PBS, 15 μL/cm^2 of anti-digoxigenin-peroxidase was applied for 30 min in a humidified chamber at room temperature. Colour was developed by adding 125 μl DAB substrate working solution for 6 min. Slides were counter-stained with methyl green for 25 minutes at room temperature. Positive apoptosis controls were generated by pre-incubating sections with DNAase (Sigma).

[5] = tested on: rat cortical slices; type: cell-based
Protocol: Brain slices were taken from cortical blocks in which all subcortical tissue had been removed. […] slices were cut using a modified slice cutter (Van Huizen et al., 1989). Slices were rinsed twice for 5 min in Mg^+2 containing Krebs-Henseleit buffer pH 7.4. Incubation media consisted of 100 μM cold glutamate, 20 μM AP5 and 10 μM DNQX, the latter NMDA or AMPA antagonists, respectively. 10 nM of [^3H]-glutamate was added to the mixture and incubated for 1 hr at 37° C. under in oxygenated atmosphere (O2/CO2=95/5%). Experimental treatments were performed in […] Mg^+2 free buffer placed in tissue culture wells containing different concentrations of MSO or isolated BSSG fractions of cycad flour. Slices were removed at the end of incubation period and the supernatant removed for scintillation counting. The supernatant fractions were placed in scintillation vials containing NEN Formula 989 for a minimum of 12 hrs before being counted in a Beckman LS6000 scintillation counter. Results were normalized to the dpm counts of respective controls.
as §1

[6] = fetal human telencephalic astrocytes, vs. control (DMEM)

With `CN[C@H](CC(=O)O)C(=O)O` [NMDA, N-methyl-D-aspartate] the caspase-3 positive labeling [1, 6] was “significant caspase-3 positive labeling”, the “field potential response with NMDA receptor antagonists (AP5, kynurenate, MK801)” value [2] was “blocked” and the “LDH release (cell death)” value [3] was “increased cell death”. For the same compound, the “LDH release in presence of AP5 / NMDA antagonists” value [3] was “attenuated; also recorded: blocked”.
For `CS(=N)(=O)CC[C@H](N)C(=O)O` (stereo partly shown) [MSO, methionine sulfoximine], the “apoptosis in CNS” value [4] was “evidence of apoptosis”, the “concentration at which depolarizing field potentials begin” value ([2]; bath application, cortical wedge from adult rat) was “approx. 50 μM” and the field potential response ([2]; bath application) was “depolarizing field potentials”. The “field potential response with AMPA antagonist NBQX” value [2] was “not blocked”, the “field potential response with NMDA receptor antagonists (AP5, kynurenate, MK801)” value [2] was “blocked” and the “calcium dependence of [3H]-glutamate release” value ([5]; calcium 0 (L) or 2 mM (H)) was “calcium dependent”. The “preloaded [3H]-glutamate release” value ([5]; rat cortical slices) was “significantly increased”, the “[3H]-glutamate release in presence of AP5” value ([5]; rat cortical slices, plus AP5) was “blocked” and the “LDH release (cell death)” value [3] was “increased cell death”. The “LDH release in presence of AP5 / NMDA antagonists” value [3] was “blocked”.
For `Cc1onc(O)c1CC(N)C(=O)O` (stereo not drawn) [AMPA, α-amino-3-hydroxy-5-methyl-4-isoxazolepropionic acid], the “field potential response with AMPA antagonist NBQX” value [2] was “blocked”.
`OO` [H2O2, hydrogen peroxide] was tested, and the caspase-3 positive labeling ([1]; human) was “significant caspase-3 positive labeling” and the “effect on LDH release” value [3] was “did not affect”.
For `C[C@@H]1O[C@@H](O[C@H]2C[C@@H](O)[C@]3(CO)[C@H]4[C@H](O)C[C@]5(C)[C@@H](C6=CC(=O)OC6)CC[C@]5(O)[C@@H]4CC[C@]3(O)C2)[C@H](O)[C@H](O)[C@H]1O` [Ouabain, ouabain], the field potential response ([2]; bath application) was “small hyperpolarizing responses” and the “LDH release (cell death)” value [3] was “little LDH release”.
With `CC[C@H](CC[C@@H](C)[C@H]1CC[C@H]2[C@@H]3CC=C4C[C@@H](O)CC[C@]4(C)[C@H]3CC[C@]12C)C(C)C` [β-sitosterol agylcone, beta-sitosterol (stigmasta-5-en-3beta-ol)] the field potential response ([2]; bath application) was “without effect” and the “LDH release (cell death)” value [3] was “without effect”.
`CC[C@H](CC[C@@H](C)[C@H]1CC[C@H]2[C@@H]3CC=C4C[C@@H](O[C@@H]5O[C@H](CO)[C@@H](O)[C@H](O)[C@H]5O)CC[C@]4(C)[C@H]3CC[C@]12C)C(C)C` [BSSG, beta-sitostrol-beta-D-glucoside (5-cholesten-24b-ethyl-3b-ol-D-glucoside)] was tested, and the “apoptotic cell loss (cell density, caspase-3)” value (shortened to “apoptotic cell loss”) [1] was “time-dependent apoptotic cell loss”, the caspase-3 positive labeling [1, 6] was “significant caspase-3 positive labeling” and the field potential response ([2]; bath application) was “qualitative similarity”. The “LDH release (cell death)” value [3] was “qualitative similarity”.
`CC(C)CCC[C@@H](C)[C@H]1CC[C@H]2[C@@H]3CC=C4C[C@@H](O)CC[C@]4(C)[C@H]3CC[C@]12C` [cholesterol] was tested, and the field potential response ([2]; bath application) was “without effect” and the “LDH release (cell death)” value [3] was “without effect”.
In the case of `C=C(C)[C@H]1CN[C@H](C(=O)O)[C@H]1CC(=O)O` [kainic acid], the “apoptotic cell loss” value [1] is reported as “time-dependent apoptotic cell loss”.
With `CO[C@H]1[C@@H](O)[C@@H](C)O[C@@H](O[C@H]2CC[C@]3(C)[C@H]4CC[C@]5(C)[C@@H](C6=CC(=O)OC6)CC[C@]5(O)[C@@H]4CC[C@]3(O)C2)[C@@H]1O` [emicymarin] the field potential response ([2]; bath application) was “small hyperpolarizing responses” and the “LDH release (cell death)” value [3] was “little LDH release”.
`CC(C)CCC[C@@H](C)[C@H]1CC[C@H]2[C@@H]3CC=C4C[C@@H](O[C@@H]5O[C@H](CO)[C@@H](O)[C@H](O)[C@H]5O)CC[C@]4(C)[C@H]3CC[C@]12C` [cholesterol glucoside, 5-cholesten-3b-ol-3b-D-glucoside] was tested, and the “apoptotic cell loss” value [1] was “time-dependent apoptotic cell loss”, the caspase-3 positive labeling [1, 6] was “significant caspase-3 positive labeling” and the field potential response ([2]; bath application) was “qualitatively similar to β-sitosterol-β-D-glucoside”. For the same compound, the “LDH release (cell death)” value [3] was “qualitatively similar to β-sitosterol-β-D-glucoside”.
